Reference: patent US9567338B2, “Pyrazolo[3,4-d]pyrimidine compounds, their preparation and use as sigma ligands” (LABORATORIOS DEL DR. ESTEVE S.A., priority 2011, dated 2017)
pKi: −log10 of the molar value.

Target: σ1-receptor (Cavia porcellus (Guinea pig), UniProt Q60492)
Test: σ1-receptor binding assay, [3H]-(+)-pentazocine displacement in brain membranes
Settings: radioligand [3H]-(+)-pentazocine 5.0 nM; for % Displacement (10^−6 M): compound at 10^−6 M
Experimental: Guinea pig brains were homogenized in 10 vols. (w/v) of Tris-HCl 50 mM 0.32 M sucrose, pH 7.4, with a Kinematica Polytron PT 3000 at 15000 r.p.m. for 30 s. The homogenate was centrifuged at 1000 g for 10 min at 4° C. and the supernatants collected and centrifuged again at 48000 g for 15 min at 4° C. The pellet was resuspended in 10 volumes of Tris-HCl buffer (50 mM, pH 7.4), incubated at 37° C. for 30 min, and centrifuged at 48000 g for 20 min at 4° C. Following this, the pellet was resuspended in fresh Tris-HCl buffer (50 mM, pH 7.4) and stored on ice until use.
The radioligand used was [^3H]-(+)-pentazocine at 5.0 nM and the final volume was 200 μl. The incubation was initiated with the addition of 100 μA of membrane at a final tissue concentration of approximately 5 mg tissue net weight/mL and the incubation time was 150 m. at 37° C. After incubation, the membranes were collected onto pretreated glass fiber filterplate (MultiScreen-FC, Millipore), with polyethylenimine 0.1%. The filters were washed two times with 200 μA of washing buffer (50 mM Tris CI, pH=7.4) and then 25 μl of Ecoscint H liquid scintillation cocktail were added. […] Nonspecific binding was determined with 1 μM haloperidol.

σ1-receptor, sequence (Q60492 whole entry): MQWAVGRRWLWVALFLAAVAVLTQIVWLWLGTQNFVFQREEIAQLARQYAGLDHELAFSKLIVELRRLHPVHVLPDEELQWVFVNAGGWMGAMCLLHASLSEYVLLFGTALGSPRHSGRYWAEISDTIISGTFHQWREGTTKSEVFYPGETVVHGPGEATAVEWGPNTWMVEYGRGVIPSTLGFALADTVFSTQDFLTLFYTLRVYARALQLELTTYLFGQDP

Row | Compound | % Displacement (10^−6 M) [%] | pKi | pKi (maleate)
1 | CNC(=S)Nc1ncnc2c1cnn2CCN1CCCCCC1.O=C(O)/C=C\C(=O)O [Example 76, 1-(1-(2-(azepan-1-yl)ethyl)-1H-pyrazolo[3,4-d]pyrimidin-4-yl)-3-methylthiourea maleate] | 96.8 | 7.83 | –
2 | CC(=O)N(C)c1ncnc2c1cnn2CCN1CCCCCC1 [Example 101, N-(1-(2-(azepan-1-yl)ethyl)-1H-pyrazolo[3,4-d]pyrimidin-4-yl)-N-methylacetamide] | – | 6.66 | –
3 | Cl.O=C(Nc1ncnc2c1cnn2CCN1CCCCC1)C1CCCCC1 [Example 6, N-(1-(2-(Piperidin-1-yl)ethyl)-1H-pyrazolo[3,4-d]pyrimidin-4-yl)cyclohexanecarboxamide hydrochloride] | 78.6 | 7.14 | –
4 | CCCNC(=O)Nc1ncnc2c1cnn2CCN1CCC(C(C)(C)C)CC1 [Example 74, 1-(1-(2-(4-tert-butylpiperidin-1-yl)ethyl)-1H-pyrazolo[3,4-d]pyrimidin-4-yl)-3-propylurea] | – | 6.67 | –
5 | CC(C)N1CCN(CCn2ncc3c(NC(=O)C45CC6CC(CC(C6)C4)C5)ncnc32)CC1.O=C(O)/C=C\C(=O)O [Example 31, N-(1-(2-(4-isopropylpiperazin-1-yl)ethyl)-1H-pyrazolo[3,4-d]pyrimidin-4-yl) 1-adamantylcarboxamide maleate] | 76.8 | 6.24 | –
6 | CCCNC(=O)Nc1ncnc2c1cnn2CCN1CCCOCC1 [Example 44, 1-(1-(2-(1,4-oxazepan-4-yl)ethyl)-1H-pyrazolo[3,4-d]pyrimidin-4-yl)-3-propylurea] | – | 6.60 | –
7 | CC(C)N1CCN(CCn2ncc3c(NC(=O)C4CCCC4)ncnc32)CC1.O=C(O)/C=C\C(=O)O [Example 32, N-(1-(2-(4-isopropylpiperazin-1-yl)ethyl)-1H-pyrazolo[3,4-d]pyrimidin-4-yl)cyclopentanecarboxamide maleate] | 63.3 | – | 6.17
8 | CC(C)(C)CC(C)(C)NC(=O)Nc1ncnc2c1cnn2CCN1CCCCCC1.O=C(O)/C=C\C(=O)O [Example 65, 1-(1-(2-(azepan-1-yl)ethyl)-1H-pyrazolo[3,4-d]pyrimidin-4-yl)-3-(2,4,4-trimethylpentan-2-yl)urea maleate] | 96.8 | 7.55 | –
9 | CC(C)N(CCn1ncc2c(NC(=O)C3CCCCC3)ncnc21)C(C)C.O=C(O)/C=C\C(=O)O [Example 16, N-(1-(2-(Diisopropylamino)ethyl)-1H-pyrazolo[3,4-d]pyrimidin-4-yl)cyclohexanecarboxamide maleate] | 68.2 | 6.61 | –
10 | CC(C)(C)c1cc(C(=O)Nc2ncnc3c2cnn3CCN2CCCCC2)cc(C(C)(C)C)c1.Cl [Example 9, 3,5-di-tert-Butyl-N-(1-(2-(piperidin-1-yl)ethyl)-1H-pyrazolo[3,4-d]pyrimidin-4-yl)benzamide hydrochloride] | 49.50 | 6.16 | –
11 | CCCNC(=O)Nc1ncnc2c1cnn2CCCN1CCCCCC1 [Example 73, 1-(1-(3-(azepan-1-yl)propyl)-1H-pyrazolo[3,4-d]pyrimidin-4-yl)-3-propylurea] | – | 6.99 | –
12 | CC(C)N(CCn1ncc2c(NC(=O)C3CCCC3)ncnc21)C(C)C.O=C(O)/C=C\C(=O)O [Example 28, N-(1-(2-(Diisopropylamino)ethyl)-1H-pyrazolo[3,4-d]pyrimidin-4-yl)cyclopentanecarboxamide maleate] | 54.0 | 6.20 | –
13 | O=C(Nc1ccc(Cl)cc1Cl)Nc1ncnc2c1cnn2CCN1CCCCCC1.O=C(O)CC(O)(CC(=O)O)C(=O)O [Example 64, 1-(1-(2-(azepan-1-yl)ethyl)-1H-pyrazolo[3,4-d]pyrimidin-4-yl)-3-(2,4-dichlorophenyl)urea citrate] | 91.4 | 6.96 | –
14 | Cc1ccc(C)n1-c1ncnc2c1cnn2CCN1CCCCC1 [Example 105, 4-(2,5-dimethyl-1H-pyrrol-1-yl)-1-(2-(piperidin-1-yl)ethyl)-1H-pyrazolo[3,4-d]pyrimidine] | – | 6.13 | –
15 | CN1CCN(CCCn2ncc3c(NC(=O)C(C)(C)C)ncnc32)CC1 [Example 86, N-(1-(3-(4-methylpiperazin-1-yl)propyl)-1H-pyrazolo[3,4-d]pyrimidin-4-yl)pivalamide] | – | 6.48 | –
16 | CC(C)N(CCn1ncc2c(NC(=O)C34C5CC6CC3CC64C5)ncnc21)C(C)C.Cl [Example 21, N-(1-(2-(Diisopropylamino)ethyl)-1H-pyrazolo[3,4-d]pyrimidin-4-yl)-1-noradamantylcarboxamide hydrochloride] | 90.8 | 7.26 | –
17 | CC(C)N(CCn1ncc2c(NC(=O)NC(C)(C)C)ncnc21)C(C)C.Cl [Example 61, 1-tert-Butyl-3-(1-(2-(diisopropylamino)ethyl)-1H-pyrazolo[3,4-d]pyrimidin-4-yl)urea hydrochloride] | 25.9 | 6.09 | –
18 | CCCNC(=O)Nc1ncnc2c1cnn2CCCCN1CCC(C(C)(C)C)CC1 [Example 93, 1-(1-(4-(4-tert-butylpiperidin-1-yl)butyl)-1H-pyrazolo[3,4-d]pyrimidin-4-yl)-3-propylurea] | – | 6.55 | –
19 | Cl.O=C(Nc1ncnc2c1cnn2CCN1CCCCCC1)C12C3CC4CC1CC42C3 [Example 22, N-(1-(2-(Azepan-1-yl)ethyl)-1H-pyrazolo[3,4-d]pyrimidin-4-yl) 1-noradamantylcarboxamide hydrochloride] | 97.2 | 7.82 | –
20 | CC(C)N(CCn1ncc2c(NC(=O)C34CC5CC(CC(C5)C3)C4)ncnc21)C(C)C.O=C(O)/C=C\C(=O)O [Example 18, N-(1-(2-(Diisopropylamino)ethyl)-1H-pyrazolo[3,4-d]pyrimidin-4-yl)-1-adamantylcarboxamide maleate] | 90.2 | 7.25 | –
